Source: patent US20240000783A1, “COMBINATION THERAPY” (Pfizer Inc., priority 2020, published 2024)

Test system: LNCaP prostate cancer cells (AR+ spheroids)
Assay: Multicellular tumor spheroid growth assay
Assay type: cell-based
Conditions: Homo sapiens, single agent, read-out: SGI % (percent spheroid growth inhibition); for inhibition at 0.1 µM: 100 nM; for inhibition at 1 µM: 1000 nM
Experimental: Example 1—Multicellular Tumor Spheroid Growth Assay in Human AR+ Prostate Cancer Cells (LNCaP) LNCaP prostate cancer cells were obtained from the ATCC and maintained in RPMI 1640 medium supplemented with 10% fetal bovine serum and penicillin-streptomycin as per ATCC guidelines. Cells were maintained in humidified incubator at 37° C. with 5% CO2. Spheroid assays were performed in 96 well ultralow attachment plates (ULA-96U) from Nexcelom & Thermo Fisher Scientific. […] To aid spheroid formation, dispensed cells were centrifuged at 220×g for 6 minutes in the ultralow attachment plates and allowed to form compact spheroids for 4 days prior to the initiation of treatment. After spheroids were formed, 150 μL of medium was aspirated from each well without disturbing the spheroid, and fresh RPMI medium of the same volume was added containing single agent compounds (palbociclib, COMPOUND A, or enzalutamide), or selected combinations thereof. Final concentrations of each compound in the wells were: 30 or 100 nM for palbociclib; 100, 300 or 1000 nM for COMPOUND A; and 1000 nM for enzalutamide. DMSO (0.01%) was used as the vehicle control. DMSO and all compounds were diluted in cell medium. Medium and compounds were replenished twice per week, with 3 and 4-day intervals. Replenishment was executed by aspirating 150 μL of medium per well without disturbing the spheroid and then adding the same volume of premixed medium/compound solution to spheroids. In some cases, an extended phase of treatment was followed by a ‘recovery’ phase where medium was replenished without addition of compounds. Spheroid diameter was quantified immediately following each medium change twice a week (on every 3rd or 4th day) throughout the duration of the assay. Growth of these MCTS was monitored over time to assess: (i) amplitude of response (SGI) and (ii) duration of response to single agents and combination treatments while on treatment. Average diameters of tumor spheroids were plotted in GraphPad Prism 8 and the area-under-curve (AUC) was calculated. AUC baseline was determined by the average tumor spheroid diameter at Day 0 in the vehicle (DMSO) controls. Spheroid growth inhibition, SGI, for all treatment arms was derived at the timepoint when the vehicle (DMSO) treated spheroids reach their maximal diameter (usually close to 1 mm but this can differ among cell lines); this corresponds to the last time point taken for the vehicle (DMSO) treated spheroids. SEM calculated based on n=10 to 12 wells per test group. Percent spheroid growth inhibition, or SGI %, was calculated as follows: SGI %=(1-AUC treatment/AUC DMSO)×100%.

CC(C)n1c(C(C)(C)O)nc2c(F)cc(-c3nc(N[C@@H]4CCOC[C@H]4O)ncc3Cl)cc21 [COMPOUND A, 1,5-anhydro-3-({5-chloro-4-[4-fluoro-2-(2-hydroxypropan-2-yl)-1-(propan-2-yl)-1H-benzimidazol-6-yl]pyrimidin-2-yl}amino)-2,3-dideoxy-D-threo-pentitol]
inhibition at 0.1 µM: 27% | inhibition at 0.3 µM (300 nM): 38% | inhibition at 1 µM: 53%

CNC(=O)c1ccc(N2C(=S)N(c3ccc(C#N)c(C(F)(F)F)c3)C(=O)C2(C)C)cc1F [enzalutamide, 4-[3-[4-cyano-3-(trifluoromethyl)phenyl]-5,5-dimethyl-4-oxo-2-thioxo-1-imidazolidinyl]-2-fluoro-N-methyl-benzamide]
inhibition at 1 µM: 46%

CC(=O)c1c(C)c2cnc(Nc3ccc(N4CCNCC4)cn3)nc2n(C2CCCC2)c1=O [palbociclib]
inhibition at 0.03 µM (30 nM): 5% | inhibition at 0.1 µM: 24%
